Here are results for five molecules from article PMC5800995 (Biochemical pharmacology, 2018).

Structures are written as SMILES.

The experiment deals with human D2LR E95^2.65A (Homo sapiens, UniProt P14416, E95A). The experiment is described as follows: ERK1/2 phosphorylation, E95^2.65A. The experiment is classed as cell-based. The note with it: for Kb: read-out: KB Function (pERK1/2); for Schild slope: dopamine-mediated pERK1/2, competitive model.
Chain of human D2LR E95^2.65A (P14416 whole entry E95A): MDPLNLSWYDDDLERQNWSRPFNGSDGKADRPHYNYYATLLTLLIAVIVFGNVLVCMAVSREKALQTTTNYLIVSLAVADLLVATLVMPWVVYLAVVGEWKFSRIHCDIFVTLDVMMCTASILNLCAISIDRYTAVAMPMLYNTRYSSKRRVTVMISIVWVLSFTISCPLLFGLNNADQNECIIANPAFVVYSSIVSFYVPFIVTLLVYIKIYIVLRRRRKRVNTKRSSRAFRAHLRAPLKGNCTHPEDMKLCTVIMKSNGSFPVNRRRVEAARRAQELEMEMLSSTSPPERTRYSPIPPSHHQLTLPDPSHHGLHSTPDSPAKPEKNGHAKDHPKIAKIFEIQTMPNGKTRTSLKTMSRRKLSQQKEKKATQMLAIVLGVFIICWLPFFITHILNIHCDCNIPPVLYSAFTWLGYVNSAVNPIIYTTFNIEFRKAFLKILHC

For `O=C(N[C@H]1CC[C@H](CCN2CCc3ccccc3C2)CC1)c1cc2ccccc2[nH]1` [MIPS1278], the “Logαβ (net cooperativity with dopamine)” value is recorded as −0.30 ± 0.20, the “fold loss in functional affinity vs WT” value is 709 fold, the “pKB Function (pERK1/2)” value worked out at 4.21 ± 0.15 and the “αβ (net cooperativity with dopamine)” value amounted to 0.50. Also, the Kb was 61.7 µM. Under “pERK1/2”, the “fold loss in negative cooperativity with dopamine vs WT” value came to 6 fold.
As for `N#Cc1ccc2c(c1)CN(CCC1CCC(NC(=O)c3nc4ccccc4o3)CC1)CC2` (stereo not drawn) [MIPS1528], the “pKB Function (pERK1/2)” value is recorded as 5.92 ± 0.07, the Schild slope was 1.68 ± 0.10 and the Kb is 1.2 µM.
Regarding `O=C(N[C@H]1CC[C@H](CCN2CCc3ccc(Br)cc3C2)CC1)c1cc2ccccc2[nH]1` [MIPS1556], the “pKB Function (pERK1/2)” value amounted to 5.96 ± 0.12 and the Schild slope stood at 1.08 ± 0.09.
On to `N#Cc1ccc2c(c1)CN(CCC1CCC(NC(=O)c3ccc[nH]3)CC1)CC2` (stereo not drawn) [MIPS1576], for which the “Logαβ (net cooperativity with dopamine)” value is given as −1.24 ± 0.10, the “fold loss in functional affinity vs WT” value is on record as 24 fold, the “pKB Function (pERK1/2)” value is listed as 7.02 ± 0.15 and the “αβ (net cooperativity with dopamine)” value was determined as 0.06. The Kb is 0.095 µM.
With `N#Cc1ccc2c(c1)CN(CCC1CCC(NC(=O)c3cc4cccnc4[nH]3)CC1)CC2` (stereo not drawn) [MIPS1588], the “Logαβ (net cooperativity with dopamine)” value is −1.12 ± 0.16, the “fold loss in functional affinity vs WT” value turned out to be 27 fold, the “pKB Function (pERK1/2)” value came out at 5.90 ± 0.20 and the “αβ (net cooperativity with dopamine)” value was found to be 0.08. Also, the Kb was 1.26 µM.
